Measurements reported in patent publication US20160002248A1, “GLS1 INHIBITORS FOR TREATING DISEASE” (Board of Regents, The University of Texas System, priority 2014, published 2016).

Legend:
[1] = molecular target: T1, purified recombinant human GAC (GLS1) (Homo sapiens, UniProt O94925); experiment: GLS1 Enzymatic Activity Assay (dual-coupled enzymatic assay); type: biochemical
T1 sequence (O94925 55-598 isoform O94925-3 limits assumed): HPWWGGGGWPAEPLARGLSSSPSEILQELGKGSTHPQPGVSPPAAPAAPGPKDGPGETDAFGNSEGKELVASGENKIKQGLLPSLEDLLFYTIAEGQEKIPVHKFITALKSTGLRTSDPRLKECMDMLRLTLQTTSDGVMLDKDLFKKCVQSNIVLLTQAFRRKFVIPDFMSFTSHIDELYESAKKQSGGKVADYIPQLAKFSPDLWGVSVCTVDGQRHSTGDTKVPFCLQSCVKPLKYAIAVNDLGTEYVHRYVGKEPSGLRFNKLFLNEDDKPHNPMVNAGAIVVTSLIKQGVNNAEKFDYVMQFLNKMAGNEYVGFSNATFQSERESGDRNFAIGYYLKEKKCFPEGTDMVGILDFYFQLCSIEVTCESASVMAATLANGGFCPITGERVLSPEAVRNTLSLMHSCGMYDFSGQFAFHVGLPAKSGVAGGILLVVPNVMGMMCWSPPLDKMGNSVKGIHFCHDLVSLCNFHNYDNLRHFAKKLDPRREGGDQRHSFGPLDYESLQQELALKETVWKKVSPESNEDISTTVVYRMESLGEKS
Summary of the method: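 In this coupled fluorometric format, phosphate-activated GAC (2 nM, 50 mM phosphate) is pre-exposed to compound for 10 min before 1 mM glutamine addition. Product is tracked as resorufin (530/590 nm) over time or at 20 min, and potency is derived by logistic fitting.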

A549 cells = experiment: Proliferation Assay (A549 cell viability, Cell Titer Fluor); type: cell-based; conditions: 72 hours
Summary of the method: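 Compound was added to A549 cells (1000/well, pre-grown 24 h in RPMI 1640 plus 10% dialyzed FBS) at 0.5% DMSO and left 72 h under 37 °C, 5% CO2, ambient O2. Live-cell fluorescence (Cell Titer Fluor) gave the EC50.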

CC(C)(O)c1ccc(CNC(=O)c2cn(CCCCc3cc4c(-c5cccc(C(F)(F)F)c5)c(C5CC5)[nH]c4nn3)nn2)cn1 [Example 166, 1-(4-{6-cyclopropyl-5-[3-(trifluoromethyl)phenyl]-7H-pyrrolo[2,3-c]pyridazin-3-yl}butyl)-N-{[6-(2-hydroxypropan-2-yl)pyridin-3-yl]methyl}-1H-1,2,3-triazole-4-carboxamide]
IC50 [1]: < 100 nM
EC50 (A549 cells; Homo sapiens): 100 to 500 nM

CC(C)(O)c1ccc(CNC(=O)c2cn(CCCCc3cc4c(Br)c(C5CC5)[nH]c4nn3)nn2)cn1 [Example 89, 1-(4-{5-bromo-6-cyclopropyl-7H-pyrrolo[2,3-c]pyridazin-3-yl}butyl)-N-{[6-(2-hydroxypropan-2-yl)pyridin-3-yl]methyl}-1H-1,2,3-triazole-4-carboxamide]
IC50 [1]: < 100 nM
EC50 (A549 cells; Homo sapiens): 100 to 500 nM

O=C(NCc1ccccc1)c1cn(CCCCc2cc3cc(Cc4ccccc4)[nH]c3nn2)nn1 [Example 14, N-benzyl-1-(4-(6-benzyl-7H-pyrrolo[2,3-c]pyridazin-3-yl)butyl)-1H-1,2,3-triazole-4-carboxamide]
IC50 [1]: < 100 nM
EC50 (A549 cells; Homo sapiens): 500 to 5000 nM

CC(C)(C)C(=O)N1CC(c2cc3cc(CCCCn4cc(C(=O)NCc5cc(OC(F)(F)F)ccc5F)nn4)nnc3[nH]2)C1 [Example 192, 1-(4-(6-[1-(2,2-dimethylpropanoyl)azetidin-3-yl]-7H-pyrrolo[2,3-c]pyridazin-3-yl}butyl)-N-{[2-fluoro-5-(trifluoromethoxy)phenyl]methyl}-1H-1,2,3-triazole-4-carboxamide]
IC50 [1]: < 100 nM
EC50 (A549 cells; Homo sapiens): < 100 nM

NCc1cccc(CC(=O)Nc2nnc(CCCCc3cc4cc(Cc5ccccc5)[nH]c4nn3)s2)c1 [Example 6, 2-(3-(aminomethyl)phenyl)-N-(5-(4-(6-benzyl-7H-pyrrolo[2,3-c]pyridazin-3-yl)butyl)-1,3,4-thiadiazol-2-yl)acetamide]
IC50 [1]: < 100 nM
EC50 (A549 cells; Homo sapiens): 500 to 5000 nM

O=C(NCc1cc(OC(F)(F)F)ccc1F)c1cn(CCCCc2cc3c(-c4ccccn4)c(C4CC4)[nH]c3nn2)nn1 [Example 144, 1-{4-[6-cyclopropyl-5-(pyridin-2-yl)-7H-pyrolo[2,3-c]pyridazin-3-yl]butyl}-N-{[2-fluoro-5-(trifluoromethoxy)phenyl]methyl}-1H-1,2,3-triazole-4-carboxamide]
IC50 [1]: < 100 nM
EC50 (A549 cells; Homo sapiens): < 100 nM

Cc1cncc(CNC(=O)c2cn(CCCCc3cc4cc(C5CC5)[nH]c4nn3)nn2)c1 [Example 46, 1-(4-{6-cyclopropyl-7H-pyrrolo[2,3-c]pyridazin-3-yl}butyl)-N-[(5-methylpyridin-3-yl)methyl]-1H-1,2,3-triazole-4-carboxamide]
IC50 [1]: < 100 nM
EC50 (A549 cells; Homo sapiens): 500 to 5000 nM

N-(5-(4-(7H-pyrrolo[2,3-c]pyridazin-3-yl)butyl)-1,3,4-thiadiazol-2-yl)-2-phenylacetamide [Example 64]
IC50 [1]: < 100 nM
EC50 (A549 cells): 500 to 5000 nM

O=C(NCc1cc(OC(F)(F)F)ccc1F)c1cn(CCCCc2cc3cc(C4CN(C(=O)CC(F)(F)F)C4)[nH]c3nn2)nn1 [Example 141, N-{[2-fluoro-5-(trifluoromethoxy)phenyl]methyl}-1-(4-{6-[1-(3,3,3-trifluoropropanoyl)azetidin-3-yl]-7H-pyrrolo[2,3-c]pyridazin-3-yl}butyl)-1H-1,2,3-triazole-4-carboxamide]
IC50 [1]: < 100 nM
EC50 (A549 cells; Homo sapiens): 100 to 500 nM

CC(=O)N1CC(c2cc3cc(CCCCn4cc(C(=O)NCc5cc(OC(F)(F)F)ccc5F)nn4)nnc3[nH]2)C1 [Example 119, 1-{4-[6-(1-acetylazetidin-3-yl)-7H-pyrrolo[2,3-c]pyridazin-3-yl]butyl}-N-{[2-fluoro-5-(trifluoromethoxy)phenyl]methyl}-1H-1,2,3-triazole-4-carboxamide]
IC50 [1]: < 100 nM
EC50 (A549 cells; Homo sapiens): 500 to 5000 nM

CC(C)(O)c1cccc(CNC(=O)c2cn(CCCCc3cc4cc(C5CC5)[nH]c4nn3)nn2)n1 [Example 87, 1-(4-(6-cyclopropyl-7H-pyrrolo[2,3-c]pyridazin-3-yl)butyl)-N-((6-(2-hydroxypropan-2-yl)pyridin-2-yl)methyl)-1H-1,2,3-triazole-4-carboxamide]
IC50 [1]: 100 to 500 nM
EC50 (A549 cells; Homo sapiens): 500 to 5000 nM
